Reference: patent publication US20240294542A1, “NLRP3 INFLAMMASOME INHIBITOR AND APPLICATION THEREOF” (TransThera Sciences (Nanjing), Inc., priority 2021, published 2024)

System: NLRP3 inflammasomes
Assay: Inhibitory activity against NLRP3 inflammasome in THP-1 cells (LPS/nigericin stimulation, IL-1β ELISA)
Assay type: cell-based
Settings: PMA-differentiated THP-1 cells; LPS 500 ng/mL 3 h, compound 1 h, nigericin 10 μg/mL 30 min; human IL-1β in supernatant by Elisa; read-out: IC50 (nM), inhibitory activities against NLRP3 in THP-1 cells
Procedure: Test Samples: The compounds of the present invention prepared according to exemplary methods.
THP-1 is Immortalized Human Macrophage Cell Line
• Test instrument: microplate reader (made from PE)
• 1. […] Culture plate coating: 100 μL polylysine solution was added into a 96-well cell culture plate, and the reaction was carried out at 37° C. for 30 min. The solution was discarded, and PBS was washed twice for later use. • 3. […] The resulting mixture was uniformly mixed, and finally diluted by 1:1000 times, and the cells were placed in a carbon dioxide cell incubator at 37° C. and cultured for 1 h. • c. Nigericin was added to each well at a final concentration of 10 μg/mL, and the plate was placed in a carbon dioxide cell incubator at 37° C. and cultured for 30 min. • d. The media in wells were transferred to a new culture plate, and then the plate was centrifuged at 3000 rpm for 5 min. Then the supernatant was transferred to a new 96-well plate. • e. The collected cell culture supernatant samples were tested for the content of human IL-1β by using a commercial Elisa kit, as specified in the instructions.

Structure (SMILES)	IC50
Cc1ccc(-c2nnc(N[C@@H]3CCCN(C)C3)c3ccccc23)c(O)c1 [Compound 1, (R)-5-methyl-2-(4-((1-methylpiperidin-3-yl)amino)phthalazin-1-yl)phenol]	1.8 nM
Cc1ccc(-c2nnc(N[C@@H]3CCCN(C)C3)c3c2CCCC3)c(O)c1 [Compound 1a, (R)-5-methyl-2-(4-((1-methylpiperidin-3-yl)amino)-5,6,7,8-tetrahydrophthalazin-1-yl)phenol]	7 nM
CN1CCC[C@@H](Nc2nnc(-c3ccc(C#N)cc3O)c3c2CCCC3)C1 [Compound 2a, (R)-3-hydroxy-4-(4-((1-methylpiperidin-3-yl)amino)-5,6,7,8-tetrahydrophthalazin-1-yl)benzonitrile]	3 nM
Cc1ccc(-c2nnc(N[C@@H]3CCCN(C)C3)c3ccc(C)cc23)c(O)c1 [Compound 3, (R)-5-methyl-2-(7-methyl-4-((1-methylpiperidin-3-yl)amino)phthalazin-1-yl)phenol]	24 nM
Cc1ccc(-c2nnc(N[C@@H]3CCCN(C)C3)c3c2CCC3)c(O)c1 [Compound 3a, (R)-5-methyl-2-(4-((1-methylpiperidin-3-yl)amino)-6,7-dihydro-5H-cyclopenta[d]pyridazin-1-yl)phenol]	4 nM
Cc1ccc(-c2nnc(N[C@@H]3CCCN(C)C3)c3cc(C)ccc23)c(O)c1 [Compound 4, (R)-5-methyl-2-(6-methyl-4-((1-methylpiperidin-3-yl)amino)phthalazin-1-yl)phenol]	9 nM
Cc1ccc(-c2nnc(N[C@@H]3CCCN(C)C3)c3c(C)cccc23)c(O)c1 [Compound 5, (R)-5-methyl-2-(5-methyl-4-((1-methylpiperidin-3-yl)amino)phthalazin-1-yl)phenol]	14 nM
CN1CCC[C@@H](Nc2nnc(-c3ccc(C4CC4)cc3O)c3c2CCCC3)C1 [Compound 5a, (R)-5-cyclopropyl-2-(4-((1-methylpiperidin-3-yl)amino)-5,6,7,8-tetrahydrophthalazin-1-yl)phenol]	5 nM
Cc1ccc(-c2nnc(N[C@@H]3CCCN(C)C3)c3cccc(F)c23)c(O)c1 [Compound 6, (R)-2-(8-fluoro-4-((1-methylpiperidin-3-yl)amino)phthalazin-1-yl)-5-methylphenol]	11 nM
Cc1ccc(-c2nnc(N[C@@H]3CCCN(C)C3)c3c2C2CCC3CC2)c(O)c1 [Compound 6a, (R)-5-methyl-2-(4-((1-methylpiperidin-3-yl)amino)-5,6,7,8-tetrahydro-5,8-ethanophthalazin-1-yl)phenol]	1 nM
Cc1ccc(-c2nnc(N[C@@H]3CCCN(C)C3)c3cc(F)ccc23)c(O)c1 [Compound 8, (R)-2-(6-fluoro-4-((1-methylpiperidin-3-yl)amino)phthalazin-1-yl)-5-methylphenol]	3 nM
Cc1ccc(-c2nnc(N[C@@H]3CCCN(C)C3)c3c(F)cccc23)c(O)c1 [Compound 9, (R)-2-(5-fluoro-4-((1-methylpiperidin-3-yl)amino)phthalazin-1-yl)-5-methylphenol]	3 nM
Cc1ccc(-c2nnc(N[C@@H]3CCCN(C)C3)c3cc(Cl)ccc23)c(O)c1 [Compound 12, (R)-2-(6-chloro-4-((1-methylpiperidin-3-yl)amino)phthalazin-1-yl)-5-methylphenol]	4 nM
CN1CCC[C@@H](Nc2nnc(-c3ccc(C(F)F)cc3O)c3c2CCCC3)C1 [Compound 15a, (R)-5-(difluoromethyl)-2-(4-((1-methylpiperidin-3-yl)amino)-5,6,7,8-tetrahydrophthalazin-1-yl)phenol]	2 nM
COc1ccc2c(-c3ccc(C)cc3O)nnc(N[C@@H]3CCCN(C)C3)c2c1 [Compound 16, (R)-2-(6-methoxy-4-((1-methylpiperidin-3-yl)amino)phthalazin-1-yl)-5-methylphenol]	7 nM
Cc1ccc(-c2nnc(N[C@@H]3CCCN(C)C3)c3cc(C#N)ccc23)c(O)c1 [Compound 20, (R)-1-(2-hydroxy-4-methylphenyl)-4-((1-methylpiperidin-3-yl)amino)phthalazine-6-carbonitrile]	12 nM
N#Cc1ccc(-c2nnc(N[C@@H]3CCCN(C4CC4)C3)c3c2CCCC3)c(O)c1 [Compound 21a, (R)-4-(4-((1-cyclopropylpiperidin-3-yl)amino)-5,6,7,8-tetrahydrophthalazin-1-yl)-3-hydroxybenzonitrile]	14 nM
COc1ccc(-c2nnc(N[C@@H]3CCCN(C)C3)c3c2CCCC3)c(O)c1 [Compound 23a, (R)-5-methoxy-2-(4-((1-methylpiperidin-3-yl)amino)-5,6,7,8-tetrahydrophthalazin-1-yl)phenol]	6 nM
Cc1ccc(-c2nnc(N[C@@H]3CCCN(C)C3)c3cc(C(F)(F)F)ccc23)c(O)c1 [Compound 24, (R)-5-methyl-2-(4-((1-methylpiperidin-3-yl)amino)-6-(trifluoromethyl)phthalazin-1-yl)phenol]	14 nM

Structure (SMILES)	IC50
CN1CCC[C@@H](Nc2nnc(-c3ccc(F)cc3O)c3c2CCCC3)C1 [Compound 24a, (R)-5-fluoro-2-(4-((1-methylpiperidin-3-yl)amino)-5,6,7,8-tetrahydrophthalazin-1-yl)phenol]	1 nM
Cc1ccc(-c2nnc(N[C@@H]3CCCN(C)C3)c3c2CCCCC3)c(O)c1 [Compound 26a, (R)-5-methyl-2-(4-((1-methylpiperidin-3-yl)amino)-6,7,8,9-tetrahydro-5H-cyclohepta[d]pyridazin-1-yl)phenol]	4 nM
Cc1ccc(-c2nnc(N[C@@H]3CCCN(C)C3)c3c2CCCC3)c(O)c1F [Compound 29a, (R)-2-fluoro-3-methyl-6-(4-((1-methylpiperidin-3-yl)amino)-5,6,7,8-tetrahydrophthalazin-1-yl)phenol]	1 nM
CN1CCC[C@@H](Nc2nnc(-c3ccc(F)c(F)c3O)c3c2CCCC3)C1 [Compound 31a, (R)-2,3-difluoro-6-(4-((1-methylpiperidin-3-yl)amino)-5,6,7,8-tetrahydrophthalazin-1-yl)phenol]	6 nM
Cc1ccc(-c2nnc(N[C@@H]3CCCN(C)C3)c3cc(C4CC4)ccc23)c(O)c1 [Compound 32, (R)-2-(6-cyclopropyl-4-((1-methylpiperidin-3-yl)amino)phthalazin-1-yl)-5-methylphenol]	15 nM
C[C@]1(O)C[C@@H](Nc2nnc(-c3ccc(C(F)(F)F)cc3O)c3c2CCCC3)C1 [Compound 32a, 2-(4-(((cis)-3-hydroxy-3-methylcyclobutyl)amino)-5,6,7,8-tetrahydrophthalazin-1-yl)-5-(trifluoromethyl)phenol]	7 nM
Cc1ccc(-c2nnc(N[C@@H]3CCCN(C)C3)c3c(Br)cccc23)c(O)c1 [Compound 34, (R)-2-(5-bromo-4-((1-methylpiperidin-3-yl)amino)phthalazin-1-yl)-5-methylphenol]	8 nM
Cc1ccc(-c2nnc(N[C@@H]3CCCN(C)C3)c3ncccc23)c(O)c1 [Compound 38, (R)-5-methyl-2-(8-((1-methylpiperidin-3-yl)amino)pyrido[2,3-d]pyridazin-5-yl)phenol]	12 nM
CN1CCC[C@@H](Nc2nnc(-c3ccc(C#N)cc3O)c3ccccc23)C1 [Compound 42, (R)-3-hydroxy-4-(4-((1-methylpiperidin-3-yl)amino)phthalazin-1-yl)benzonitrile]	13 nM
Cc1ccc(-c2nnc(N[C@@H]3CCCN(C)C3)c3ccsc23)c(O)c1 [Compound 48, (R)-5-methyl-2-(4-((1-methylpiperidin-3-yl)amino)thieno[2,3-d]pyridazin-7-yl)phenol]	2 nM
Cc1ccc(-c2nnc(N[C@@H]3CCCN(C)C3)c3ccncc23)c(O)c1 [Compound 49, (R)-5-methyl-2-(1-((1-methylpiperidin-3-yl)amino)pyrido[3,4-d]pyridazin-4-yl)phenol]	9 nM
Cc1ccc(-c2nnc(N[C@@H]3CCCN(C)C3)c3cnccc23)c(O)c1 [Compound 50, (R)-5-methyl-2-(4-((1-methylpiperidin-3-yl)amino)pyrido[3,4-d]pyridazin-1-yl)phenol]	1 nM
Cc1ccc2c(N[C@@H]3CCCN(C)C3)nnc(-c3ccc(C#N)cc3O)c2c1 [Compound 54, (R)-3-hydroxy-4-(7-methyl-4-((1-methylpiperidin-3-yl)amino)phthalazin-1-yl)benzonitrile]	13 nM
Cc1ccc2c(-c3ccc(C#N)cc3O)nnc(N[C@@H]3CCCN(C)C3)c2c1 [Compound 55, (R)-3-hydroxy-4-(6-methyl-4-((1-methylpiperidin-3-yl)amino)phthalazin-1-yl)benzonitrile]	4 nM
Cc1ccc(-c2nnc(N[C@@H]3CCCN(C)C3)c3cc(Br)ccc23)c(O)c1 [Compound 60, (R)-2-(6-bromo-4-((1-methylpiperidin-3-yl)amino)phthalazin-1-yl)-5-methylphenol]	13 nM
Cc1ccc(-c2nnc(N[C@@H]3CCCN(C)C3)c3sccc23)c(O)c1 [Compound 70, (R)-5-methyl-2-(7-((1-methylpiperidin-3-yl)amino)thieno[2,3-d]pyridazin-4-yl)phenol]	1 nM
CN1CCC[C@@H](Nc2nnc(-c3ccc(C4CC4)cc3O)c3ccccc23)C1 [Compound 72, (R)-5-cyclopropyl-2-(4-((1-methylpiperidin-3-yl)amino)phthalazin-1-yl)phenol]	1 nM
CN1CCC[C@@H](Nc2nnc(-c3ccc(Br)cc3O)c3ccccc23)C1 [Compound 73, (R)-5-bromo-2-(4-((1-methylpiperidin-3-yl)amino)phthalazin-1-yl)phenol]	1 nM
